Common to all, as to experiment: inhibition of tumour cell growth, NCI panel, 48 h
Experiment [1] has as its system MDA-MB-435.
Experiment [2] deals with NCI-H226 lung.
Experiment [3] concerns NCI-H460 lung.
The test system of experiment [4] is IGROV1 ovarian.
Experiment [5] has as its system SW-620 colon.
For experiment [6], the system named is SK-MEL-28 melanoma.
Experiment [7] concerns HCT-116 colon.
The subject of experiment [8] is SF-295 CNS.

Several values for one entry are separate records, joined by “and”; a condition that tells them apart may be missing. Equal entries are not always repeated.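 Cells were grown in 96-well plates and exposed to each compound for 48 hours at five concentrations; endpoints were interpolated linearly between bracketing concentrations, or set to the highest concentration if not reached. At the GI50, growth is halved. TGI is the concentration that stops growth completely.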

Turning to `COc1ccc(-c2nc(-c3ccccn3)c(-c3ccccn3)n2CC(C)C)cc1OC1CCCC1`, the GI50 is 31.3 µM in experiment [1]; 21.3 µM in experiment [2]; 32.1 µM in experiment [3]; 11.5 µM in experiment [4]; 42 µM in experiment [5]; 38.7 µM in experiment [6]. In addition, the GI50 is 7.35 µM in experiment [7] and 9.56 µM in experiment [8]. Further, the TGI is more than 165 µM in experiment [1]; more than 165 µM in experiment [2]; 99.7 µM in experiment [3]; more than 165 µM in experiment [4]; more than 165 µM in experiment [5]; 159 µM in experiment [6]. Further, the TGI was more than 165 µM in experiment [7] and 106 µM in experiment [8].
With `Fc1ccc([C@@H]2CCNC[C@H]2COc2ccc3c(c2)OCO3)cc1`, the GI50 in experiment [1] was 2.31 µM; in experiment [2] it was 13.7 µM; in experiment [3], 5.51 µM; in experiment [4] it was 7.05 µM; in experiment [5], 10.6 µM; in experiment [6], 5.96 µM. In addition, the GI50 in experiment [7] was 6.07 µM; in experiment [8] it was 4.07 µM. The TGI in experiment [1] was 7.96 µM; in experiment [2] it was 29.9 µM; in experiment [3] it was 18.6 µM; in experiment [4], 20.3 µM; in experiment [5] it was 24.2 µM; in experiment [6], 19 µM. The values for the TGI in experiment [7] and in experiment [8] were 21.8 µM and 17.1 µM, respectively.
Take `c1ccc2cc(C[n+]3ccn(Cc4ccc5ccccc5n4)c3)ccc2c1`: the GI50 in experiment [1] was 0.312 µM and 2.46 µM; in experiment [2], 1.06 µM and 4.51 µM; in experiment [3], 0.456 µM and 3.74 µM; in experiment [4] it was 0.481 µM and 2.22 µM; in experiment [5] it was 0.734 µM and 6.27 µM; in experiment [6], 0.325 µM and 2.78 µM. Also, the GI50 was 0.413 µM and 3.29 µM in experiment [7]; 0.71 µM and 4.46 µM in experiment [8]. Besides, the TGI in experiment [1] is 1.31 µM and 10.6 µM; in experiment [2] it was 4.87 µM and 21.6 µM; in experiment [3], 10.8 µM and 14.6 µM; in experiment [4], 3.19 µM and 9.03 µM; in experiment [5] it was 11.8 µM and 22.1 µM; in experiment [6] it was 1.35 µM and 13 µM. Also, the TGI in experiment [7] was 6.86 µM and 15.8 µM; in experiment [8], 4.98 µM and 18.7 µM.
With `COc1ccc(/C=N\NC(=O)c2ccc3nc(-c4ccc(Cl)cc4)[nH]c3c2)cc1`, the GI50 was 3.11 µM in experiment [1]; 1.79 µM in experiment [2]; 1.83 µM in experiment [3]; 1.65 µM in experiment [4]; 2.41 µM in experiment [5]; 1.79 µM in experiment [6]. Besides, the figures for the GI50 in experiment [7] and in experiment [8] were 2.14 µM and 2.23 µM, respectively. The TGI in experiment [1] was 9.84 µM; in experiment [2] it was 4.43 µM; in experiment [3], 3.59 µM; in experiment [4], 3.97 µM; in experiment [5], 5.58 µM; in experiment [6] it was 3.37 µM. The TGI in experiment [7] worked out at 5.12 µM; in experiment [8], 5.05 µM.
`CN1CCN(c2ccc3nc(-c4[nH]ncc4Nc4ncnc5c4OCCCN5)[nH]c3c2)CC1`: the GI50 is less than 0.01 µM in experiment [1]; less than 0.01 µM in experiment [2]; 0.0208 µM in experiment [3]; less than 0.01 µM in experiment [4]; less than 0.01 µM in experiment [5]; 0.0161 µM in experiment [6]. The GI50 in experiment [7] is less than 0.01 µM; in experiment [8], 0.0162 µM. Besides, the TGI in experiment [1] was 0.081 µM; in experiment [2], 0.0573 µM; in experiment [3], 0.0804 µM; in experiment [4] it was 0.0707 µM; in experiment [5], 0.112 µM; in experiment [6] it was 0.104 µM. In addition, the TGI in experiment [7] is 1.09 µM; in experiment [8], 0.0769 µM.
For `CN(C)c1ccc(Nc2c3ccccc3nc3cc(NC(=O)CCN4CCCC4)ccc23)cc1`, the GI50 in experiment [1] is 1.22 µM; in experiment [2] it was 0.577 µM; in experiment [3] it was 0.0423 µM; in experiment [4] it was 0.291 µM; in experiment [5], 0.252 µM; in experiment [6], 1.46 µM. Also, the GI50 in experiment [7] is 0.346 µM; in experiment [8] it was 0.362 µM. Besides, the TGI turned out to be 2.49 µM in experiment [1]; 2.59 µM in experiment [2]; 0.683 µM in experiment [3]; 1.83 µM in experiment [4]; 1.68 µM in experiment [5]; 2.85 µM in experiment [6]. In addition, the values for the TGI in experiment [7] and in experiment [8] were 1.61 µM and 1.51 µM, respectively.
`COc1ccc(C(=O)/C=C/c2cc(-c3ccc4c(c3)OCO4)n[nH]2)cc1OC`: the GI50 in experiment [1] was 3.03 µM; in experiment [2] it was 3.4 µM; in experiment [3], 1.81 µM; in experiment [4], 2.79 µM; in experiment [5], 2.05 µM; in experiment [6], 5.76 µM. Further, the GI50 in experiment [7] was 2.43 µM; in experiment [8], 2.51 µM. For the same molecule, the TGI in experiment [1] turned out to be 10 µM; in experiment [2], 11.2 µM; in experiment [3], 4.05 µM; in experiment [4], 9.2 µM; in experiment [5] it was 4.81 µM; in experiment [6] it was 19.3 µM. The TGI in experiment [7] came to 7.99 µM; in experiment [8], 6.15 µM.

The values above are taken from PubChem BioAssay (NCI).
